Test results taken from US5608091A, “Quinizarin compound, method for production thereof, and use therefor” (Nippon Shokubai Co., Ltd., priority 1993, dated 1997).

Assays:
[1] = Stability in storage of thermal transfer recorded images; settings: 50° C., 50 hours
Method: The recorded images obtained as described above were left standing in an atmosphere kept at 50° C. for 50 hours and, after the standing, were examined to determine the presence or absence of change caused on the images owing to the standing.
(§1) Ink compositions were prepared, transfer sheets produced, and transfer recording carried out by following the procedure of Example 89 while using the dye shown in Table 11 instead. The recorded images were tested for lightfastness and then for stability in storage in the same manner as in Example 89.
as §1, with “dyes” for “dye”, “12” for “11”

[2] = Visible absorption spectrum (λmax, ε); format: physicochemical; settings: for ε: in M-1 cm-1 (unit assumed)
[3] = Solubility in toluene and methyl ethyl ketone, three-point scale; format: physicochemical
Source text: In these tables, the solubility is rated on the three-point scale, wherein Δ stands for a solubility of less than 1% by weight, .largecircle. for a solubility in the approximate range of 1 to 3% by weight, and .circleincircle. for a solubility of not less than 3% by weight.

Color tone of the dye = format: physicochemical; settings: Tables 1-9

Row | SMILES | Stability in storage [1] | λ max ([2]; in chloroform) | ε ([2]; in chloroform, at λ max) | Color tone (Color tone of the dye) | λ max ([2]; in toluene) | ε ([2]; in toluene) | Solubility ([3]; in toluene) | Solubility in methyl ethyl ketone [3] | Solubility in toluene ([3]; in toluene)
1 | CCCCCCCCOc1c(F)c2c(c(F)c1Nc1c(CC)cccc1CC)C(=O)c1c(O)ccc(O)c1C2=O [(51)] | Good | 563 nm | 11400 | Purple | – | – | – | .circleincircle. (a solubility of not less than 3% by weight) | .circleincircle. (a solubility of not less than 3% by weight)
2 | CCCCOc1c(Nc2c(C(C)C)cccc2C(C)C)c(Nc2c(C(C)C)cccc2C(C)C)c(F)c2c1C(=O)c1c(O)ccc(O)c1C2=O [(159)] | Good | – | – | – | – | – | – | – | –
3 | CCCCCCCCOc1c(F)c2c(c(F)c1Nc1ccc(C#N)cc1)C(=O)c1c(O)ccc(O)c1C2=O [(45)] | Good | 524 nm | 15400 | Magenta | – | – | – | .circleincircle. (a solubility of not less than 3% by weight) | .circleincircle. (a solubility of not less than 3% by weight)
4 | O=C1c2ccc(Nc3c(Cl)cccc3Cl)cc2C(=O)c2c(O)ccc(O)c21 [(102)] | Good | – | – | – | 516 nm | 15600 | Not less than 3 % by weight | – | –
5 | CCCCCCCCOc1c(Nc2c(Cl)cccc2Cl)c(Nc2c(Cl)cccc2Cl)c(F)c2c1C(=O)c1c(O)ccc(O)c1C2=O [(183)] | Good | – | – | – | – | – | – | – | –
6 | CCCCOc1c(Nc2c(CC)cccc2CC)c(Nc2c(CC)cccc2CC)c(F)c2c1C(=O)c1c(O)ccc(O)c1C2=O [(158)] | Good | – | – | – | – | – | – | – | –
7 | O=C1c2c(O)ccc(O)c2C(=O)c2c(F)c(Sc3ccc(O)cc3)c(Sc3ccc(O)cc3)c(F)c21 [(301)] | – | 514 nm | 12900 | Cinnabar | – | – | – | .largecircle. (a solubility in the approximate range of 1 to 3% by weight) | .largecircle. (a solubility in the approximate range of 1 to 3% by weight)
8 | CCc1ccc(Cl)c(CC)c1Nc1c(F)c2c(c(F)c1Nc1c(CC)ccc(Cl)c1CC)C(=O)c1c(O)ccc(O)c1C2=O [(141)] | Good | – | – | – | – | – | – | – | –
9 | CCCCCCCCSc1c(F)c2c(c(F)c1SCCCCCCCC)C(=O)c1c(O)ccc(O)c1C2=O [(304)] | – | 504 nm | 14600 | Orange | – | – | – | .largecircle. (a solubility in the approximate range of 1 to 3% by weight) | .largecircle. (a solubility in the approximate range of 1 to 3% by weight)
10 | O=C1c2c(O)ccc(O)c2C(=O)c2c(Nc3ccccc3)c(Sc3ccccc3)c(Sc3ccccc3)c(Nc3ccccc3)c21 [(297)] | – | 692 nm | 15900 | Cyan | – | – | – | .largecircle. (a solubility in the approximate range of 1 to 3% by weight) | .largecircle. (a solubility in the approximate range of 1 to 3% by weight)
11 | CCCCOc1c(Nc2c(C)cccc2C(=O)OCC)c(Nc2c(C)cccc2C(=O)OCC)c(F)c2c1C(=O)c1c(O)ccc(O)c1C2=O [(162)] | Good | – | – | – | – | – | – | – | –
12 | CCCCOc1c(Nc2c(CC)ccc(Cl)c2CC)c(Nc2c(CC)ccc(Cl)c2CC)c(F)c2c1C(=O)c1c(O)ccc(O)c1C2=O [(160)] | Good | – | – | – | – | – | – | – | –
13 | CCCCSc1c(SCCCC)c(SCCCC)c2c(c1SCCCC)C(=O)c1c(O)ccc(O)c1C2=O [(308)] | – | 530 nm | 11100 | Magenta | – | – | – | .largecircle. (a solubility in the approximate range of 1 to 3% by weight) | .circleincircle. (a solubility of not less than 3% by weight)
14 | COc1ccccc1Nc1c(F)c2c(c(F)c1Nc1ccccc1OC)C(=O)c1c(O)ccc(O)c1C2=O [(131)] | – | 661 nm | 15600 | Cyan | – | – | – | .largecircle. (a solubility in the approximate range of 1 to 3% by weight) | .largecircle. (a solubility in the approximate range of 1 to 3% by weight)

Further lines, with some results ahead:

Row | Stability in storage [1] | λ max ([2]; in chloroform) | ε ([2]; in chloroform, at λ max) | Color tone (Color tone of the dye) | λ max ([2]; in toluene) | ε ([2]; in toluene) | Solubility ([3]; in toluene) | SMILES | Solubility in methyl ethyl ketone [3] | Solubility in toluene ([3]; in toluene)
15 | Good | – | – | – | – | – | – | CCCCCCCCOc1c(Nc2cccc(C(=O)OCC)c2)c(Nc2cccc(C(=O)OCC)c2)c(F)c2c1C(=O)c1c(O)ccc(O)c1C2=O [(156)] | – | –
16 | Good | – | – | – | – | – | – | CCCCCCCCOc1c(F)c2c(c(F)c1Nc1ccc(C(=O)OCC)cc1)C(=O)c1c(O)ccc(O)c1C2=O [(33)] | – | –
17 | – | 651 nm | 13400 | Cyan | – | – | – | COc1cccc(Nc2c(F)c3c(c(F)c2Nc2cccc(OC)c2)C(=O)c2c(O)ccc(O)c2C3=O)c1 [(133)] | .largecircle. (a solubility in the approximate range of 1 to 3% by weight) | .largecircle. (a solubility in the approximate range of 1 to 3% by weight)
18 | – | 666 nm | 22800 | Cyan | – | – | – | CCCCNc1c(F)c2c(c(F)c1Nc1ccc(OC)cc1)C(=O)c1c(O)ccc(O)c1C2=O [(228)] | .largecircle. (a solubility in the approximate range of 1 to 3% by weight) | .largecircle. (a solubility in the approximate range of 1 to 3% by weight)
19 | – | 527 nm | 15300 | Magenta | – | – | – | CCOC(=O)c1cccc(Nc2c(F)c(F)c3c(c2F)C(=O)c2c(O)ccc(O)c2C3=O)c1 [(4)] | .largecircle. (a solubility in the approximate range of 1 to 3% by weight) | .largecircle. (a solubility in the approximate range of 1 to 3% by weight)
20 | – | 557 nm | 15300 | Purple | – | – | – | COc1ccccc1Nc1c(F)c(F)c2c(c1F)C(=O)c1c(O)ccc(O)c1C2=O [(14)] | .largecircle. (a solubility in the approximate range of 1 to 3% by weight) | .largecircle. (a solubility in the approximate range of 1 to 3% by weight)
21 | – | 533 nm | 17900 | Magenta | – | – | – | CCCCNc1c(F)c(F)c2c(c1F)C(=O)c1c(O)ccc(O)c1C2=O [(117)] | .largecircle. (a solubility in the approximate range of 1 to 3% by weight) | .largecircle. (a solubility in the approximate range of 1 to 3% by weight)
22 | – | 533 nm | 14800 | Magenta | – | – | – | O=C1c2c(O)ccc(O)c2C(=O)c2c(F)c(Nc3ccccc3)c(F)c(F)c21 [(1)] | Δ (a solubility of less than 1% by weight) | .largecircle. (a solubility in the approximate range of 1 to 3% by weight)
23 | – | 523 nm | 20600 | Magenta | – | – | – | N#Cc1ccc(Nc2c(F)c(F)c3c(c2F)C(=O)c2c(O)ccc(O)c2C3=O)cc1 [(10)] | Δ (a solubility of less than 1% by weight) | Δ (a solubility of less than 1% by weight)
24 | – | 666 nm | 15300 | Cyan | – | – | – | CCCCNc1c(F)c2c(c(F)c1Nc1ccccc1)C(=O)c1c(O)ccc(O)c1C2=O [(229)] | .largecircle. (a solubility in the approximate range of 1 to 3% by weight) | .largecircle. (a solubility in the approximate range of 1 to 3% by weight)
25 | – | 530 nm | 8600 | Magenta | – | – | – | CCCCOC(=O)c1ccccc1Nc1c(F)c(F)c2c(c1F)C(=O)c1c(O)ccc(O)c1C2=O [(5)] | .circleincircle. (a solubility of not less than 3% by weight) | .circleincircle. (a solubility of not less than 3% by weight)
26 | – | 521 nm | 16300 | Magenta | – | – | – | O=C1c2c(O)ccc(O)c2C(=O)c2c(F)c(Nc3ccc([N+](=O)[O-])cc3)c(F)c(F)c21 [(12)] | Δ (a solubility of less than 1% by weight) | Δ (a solubility of less than 1% by weight)
27 | – | 648 nm | 19800 | Cyan | – | – | – | O=C1c2c(O)ccc(O)c2C(=O)c2c(F)c(Nc3ccccc3)c(Nc3ccccc3)c(F)c21 [(120)] | Δ (a solubility of less than 1% by weight) | Δ (a solubility of less than 1% by weight)
28 | – | 528 nm | 17900 | Magenta | – | – | – | CCCCOC(=O)c1ccc(Nc2c(F)c(F)c3c(c2F)C(=O)c2c(O)ccc(O)c2C3=O)cc1 [(6)] | .largecircle. (a solubility in the approximate range of 1 to 3% by weight) | .largecircle. (a solubility in the approximate range of 1 to 3% by weight)
29 | – | 532 nm | 16300 | Magenta | – | – | – | COc1cccc(Nc2c(F)c(F)c3c(c2F)C(=O)c2c(O)ccc(O)c2C3=O)c1 [(16)] | .largecircle. (a solubility in the approximate range of 1 to 3% by weight) | .largecircle. (a solubility in the approximate range of 1 to 3% by weight)
30 | – | 542 nm | 10200 | Magenta | – | – | – | COc1ccc(Nc2c(F)c(F)c3c(c2F)C(=O)c2c(O)ccc(O)c2C3=O)cc1 [(15)] | .largecircle. (a solubility in the approximate range of 1 to 3% by weight) | .largecircle. (a solubility in the approximate range of 1 to 3% by weight)
